The values that follow come from patent US10501518B2 (priority 2013, dated 2019).

This assay deals with T1, PTHR (Homo sapiens, UniProt Q03431).
T1 construct: expressed in transfected cells
T1 sequence (Q03431 27-593): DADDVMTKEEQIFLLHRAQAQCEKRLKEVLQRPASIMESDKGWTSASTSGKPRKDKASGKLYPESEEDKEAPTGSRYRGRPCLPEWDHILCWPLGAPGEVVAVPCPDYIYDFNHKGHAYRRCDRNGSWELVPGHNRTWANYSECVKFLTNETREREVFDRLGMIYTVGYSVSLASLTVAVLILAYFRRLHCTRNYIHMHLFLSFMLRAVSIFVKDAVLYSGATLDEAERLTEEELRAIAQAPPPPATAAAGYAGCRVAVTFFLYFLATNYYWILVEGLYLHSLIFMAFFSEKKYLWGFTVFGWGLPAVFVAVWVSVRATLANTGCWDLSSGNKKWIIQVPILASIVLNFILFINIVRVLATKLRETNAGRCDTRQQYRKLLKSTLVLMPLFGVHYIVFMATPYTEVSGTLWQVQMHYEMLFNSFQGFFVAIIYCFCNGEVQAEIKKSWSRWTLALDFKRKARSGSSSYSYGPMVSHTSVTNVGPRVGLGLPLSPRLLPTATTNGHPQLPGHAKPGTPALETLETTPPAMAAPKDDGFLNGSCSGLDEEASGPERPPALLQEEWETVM
Put plainly: cAMP induction potency, N-terminal modifications and cyclic constraints (Tables 9, 10, 13). It counts as cell-based.

Starred links: 1 amine or outer side, 2 acyl side, 3 side chain; linkers in the order of their positions; H or OH if unused. Non-standard residues stand in square brackets, D forms with d. Residues, ends and D or L forms follow the SMILES beside them. *: point of attachment. NH(1S,2S-2-CONH2-cPent) = NC(=O)[C@H]1CCC[C@@H]1N*; β3hW = N[C@H](CC(=O)O)Cc1c[nH]c2ccccc12; X12 = O=C([C@H]1CCC[C@@H]1N[*:1])[*:2]; X13 = O=C([C@H]1CNC[C@@H]1N[*:1])[*:2]; ACPC(1S,2S) = N[C@H]1CCC[C@@H]1C(=O)*; hArg = N=C(N)NCCCC[C@H](N)C(=O)O; β3hE = N[C@@H](CCC(=O)O)CC(=O)O; β3hF = N[C@H](CC(=O)O)Cc1ccccc1; X14 = O=C(C1CCCC1N[*:1])[*:2]; β3hK = NCCCC[C@H](N)CC(=O)O; β3hM = CSCC[C@H](N)CC(=O)O; β3hD = NC(CC(=O)O)CC(=O)O; β3hS = N[C@@H](CO)CC(=O)O; Aib = CC(C)(N)C(=O)O

Procedure: For cAMP dose-response assays, monolayers of confluent HEK 293 cells were pre-incubated with buffer containing d-luciferin (0.5 mM) in 96 well plates at room temperature until a stable baseline level of luminescence was established (30 min). Varying concentrations of agonist were then added, and the time course of luminescence response was recorded using a Perkin Elmer plate reader following α/β-peptide addition.

Take `CSCC[C@H](NC(=O)[C@H]1CCC[C@@H]1NC(=O)[C@H](CCC(N)=O)NC(=O)[C@H]1CCC[C@@H]1NC(=O)[C@H](CCC(=O)O)NC(=O)[C@H](CO)NC(=O)[C@@H](NC(=O)[C@H]1CCC[C@@H]1N)C(C)C)C(=O)N[C@@H](Cc1c[nH]cn1)C(=O)N[C@@H](CC(N)=O)C(=O)N[C@@H](CC(C)C)C(=O)NCC(=O)N[C@@H](CCCCN)C(=O)N[C@H]1CCC[C@@H]1C(=O)N[C@@H](CC(C)C)C(=O)N[C@@H](CC(N)=O)C(=O)N[C@@H](CO)C(=O)N[C@H]1CCC[C@@H]1C(=O)N[C@@H](CCC(=O)O)C(=O)N[C@@H](CCCNC(=N)N)C(=O)N[C@H](C(=O)N[C@@H](CCC(=O)O)CC(=O)N[C@@H](Cc1c[nH]c2ccccc12)C(=O)N[C@@H](CC(C)C)C(=O)N[C@@H](CCCNC(=N)N)C(=O)N[C@H]1CNC[C@@H]1C(=O)N[C@@H](CCCCN)C(=O)N[C@@H](CC(C)C)C(=O)N[C@@H](CCC(N)=O)C(=O)N[C@@H](CC(=O)O)CC(=O)N[C@H](C(=O)N[C@@H](Cc1c[nH]cn1)C(=O)N[C@@H](CC(N)=O)C(=O)N[C@H]1CCC[C@@H]1C(N)=O)C(C)C)C(C)C` [CycD6_ACPC(1,5,7), XVSEXQXMHNLGKXLNSXERVEWLRZKLQDVHNX-NH2] ({ACPC(1S,2S)}-VSE[X12]Q[X12]MHNLGK[X12]LNS[X12]ERV[β3hE]WLR[X13]KLQ[β3hD]VHN-{NH(1S,2S-2-CONH2-cPent)}; N-terminus assumed): the “Fold PTH” value (Table 9) turned out to be 266. On the same count and under the same terms, in the case of `CC[C@H](C)[C@H](NC(=O)[C@H](CCC(=O)O)NC(=O)[C@H](CO)NC(=O)[C@@H](NC(=O)[C@H]1CCC[C@@H]1N)C(C)C)C(=O)N[C@@H](CCC(N)=O)C(=O)N[C@H]1CCC[C@@H]1C(=O)N[C@@H](CCSC)C(=O)N[C@@H](Cc1c[nH]cn1)C(=O)N[C@@H](CC(N)=O)C(=O)N[C@@H](CC(C)C)C(=O)NCC(=O)N[C@@H](CCCCN)C(=O)N[C@H]1CCC[C@@H]1C(=O)N[C@@H](CC(C)C)C(=O)N[C@@H](CC(N)=O)C(=O)N[C@@H](CO)C(=O)N[C@H]1CCC[C@@H]1C(=O)N[C@@H](CCC(=O)O)C(=O)N[C@@H](CCCNC(=N)N)C(=O)N[C@H](C(=O)N[C@@H](CCC(=O)O)CC(=O)N[C@@H](Cc1c[nH]c2ccccc12)C(=O)N[C@@H](CC(C)C)C(=O)N[C@@H](CCCNC(=N)N)C(=O)N[C@H]1CNC[C@@H]1C(=O)N[C@@H](CCCCN)C(=O)N[C@@H](CC(C)C)C(=O)N[C@@H](CCC(N)=O)C(=O)N[C@@H](CC(=O)O)CC(=O)N[C@H](C(=O)N[C@@H](Cc1c[nH]cn1)C(=O)N[C@@H](CC(N)=O)C(=O)N[C@H]1CCC[C@@H]1C(N)=O)C(C)C)C(C)C` [CycD6_ACPC(1,7), XVSEIQXMHNLGKXLNSXERVEWLRZKLQDVHNX-NH2] ({ACPC(1S,2S)}-VSEIQ[X12]MHNLGK[X12]LNS[X12]ERV[β3hE]WLR[X13]KLQ[β3hD]VHN-{NH(1S,2S-2-CONH2-cPent)}; N-terminus assumed) it was 7.3; in that of `CC[C@H](C)[C@H](NC(=O)[C@H](CCC(=O)O)NC(=O)[C@H](CO)NC(=O)[C@@H](NC(=O)[C@H]1CCC[C@@H]1N)C(C)C)C(=O)N[C@@H](CCC(N)=O)C(=O)N[C@H]1CCC[C@@H]1C(=O)N[C@@H](CCSC)C(=O)N[C@@H](Cc1c[nH]cn1)C(=O)N[C@@H](CC(N)=O)C(=O)N[C@@H](CC(C)C)C(=O)NCC(=O)N[C@@H](CCCCN)C(=O)N[C@H]1CCC[C@@H]1C(=O)N[C@@H](CC(C)C)C(=O)N[C@@H](CC(N)=O)C(=O)N[C@@H](CO)C(=O)N[C@H]1CCC[C@@H]1C(=O)N[C@@H](CCC(=O)O)C(=O)N[C@@H](CCCNC(=N)N)C(=O)N[C@H](C(=O)N[C@H]1CNC[C@@H]1C(=O)N[C@@H](Cc1c[nH]c2ccccc12)C(=O)N[C@@H](CC(C)C)C(=O)N[C@@H](CCCNC(=N)N)C(=O)N[C@H]1CNC[C@@H]1C(=O)N[C@@H](CCCCN)C(=O)N[C@@H](CC(C)C)C(=O)N[C@@H](CCC(N)=O)C(=O)N[C@H]1CCC[C@@H]1C(=O)N[C@H](C(=O)N[C@@H](Cc1c[nH]cn1)C(=O)N[C@@H](CC(N)=O)C(=O)N[C@H]1CCC[C@@H]1C(N)=O)C(C)C)C(C)C` [FcycD6_ACPC(1,7), XVSEIQXMHNLGKXLNSXERVZWLRZKLQXVHNX-NH2] ({ACPC(1S,2S)}-VSEIQ[X12]MHNLGK[X12]LNS[X12]ERV[X13]WLR[X13]KLQ[X12]VHN-{NH(1S,2S-2-CONH2-cPent)}; N-terminus assumed), 8.7. Turning to `CSCC[C@H](NC(=O)[C@H]1CCC[C@@H]1NC(=O)[C@H](CCC(N)=O)NC(=O)[C@H]1CCC[C@@H]1NC(=O)[C@H](CCC(=O)O)NC(=O)[C@H](CO)NC(=O)[C@@H](NC(=O)C[C@@H](N)CO)C(C)C)C(=O)N[C@@H](Cc1c[nH]cn1)C(=O)N[C@@H](CC(N)=O)C(=O)N[C@@H](CC(C)C)C(=O)NCC(=O)N[C@@H](CCCCN)C(=O)N[C@H]1CCC[C@@H]1C(=O)N[C@@H](CC(C)C)C(=O)N[C@@H](CC(N)=O)C(=O)N[C@@H](CO)C(=O)N[C@H]1CCC[C@@H]1C(=O)N[C@@H](CCC(=O)O)C(=O)N[C@@H](CCCNC(=N)N)C(=O)N[C@H](C(=O)N[C@H]1CNC[C@@H]1C(=O)N[C@@H](Cc1c[nH]c2ccccc12)C(=O)N[C@@H](CC(C)C)C(=O)N[C@@H](CCCNC(=N)N)C(=O)N[C@H]1CNC[C@@H]1C(=O)N[C@@H](CCCCN)C(=O)N[C@@H](CC(C)C)C(=O)N[C@@H](CCC(N)=O)C(=O)N[C@H]1CCC[C@@H]1C(=O)N[C@H](C(=O)N[C@@H](Cc1c[nH]cn1)C(=O)N[C@@H](CC(N)=O)C(=O)N[C@H]1CCC[C@@H]1C(N)=O)C(C)C)C(C)C` [FcycD6_β^3Ser1, ACPC(5, 7, SVSEXQXMHNLGKXLNSXERVZWLRZKLQXVHNX-NH2] (H-[β3hS]VSE[X12]Q[X12]MHNLGK[X12]LNS[X12]ERV[X13]WLR[X13]KLQ[X12]VHN-{NH(1S,2S-2-CONH2-cPent)}; N-terminus assumed), the EC50 (Table 13, non M-PTH analogs, read-out: cAMP, EC50 nM ± SEM) came to 0.79 nM. Take `CC[C@H](C)[C@H](NC(=O)[C@H](CCC(=O)O)NC(=O)[C@H](C)NC(=O)[C@@H](NC(=O)[C@H](C)N)C(C)C)C(=O)N[C@@H](CCC(N)=O)C(=O)NC1CCCC1C(=O)N[C@@H](CCSC)C(=O)N[C@@H](Cc1c[nH]cn1)C(=O)N[C@@H](CCC(N)=O)C(=O)N[C@@H](CCCCNC(=N)N)C(=O)N[C@@H](C)C(=O)N[C@@H](CCCCN)C(=O)N[C@H](CC(=O)N[C@@H](CC(C)C)C(=O)N[C@@H](CC(N)=O)C(=O)N[C@@H](CO)C(=O)N[C@@H](CCSC)CC(=O)N[C@@H](CCCNC(=N)N)C(=O)N[C@@H](CCCNC(=N)N)C(=O)N[C@H](C(=O)N[C@@H](CCC(=O)O)CC(=O)N[C@@H](Cc1c[nH]c2ccccc12)C(=O)N[C@@H](CC(C)C)C(=O)N[C@@H](CCCNC(=N)N)C(=O)N[C@@H](CCCCN)CC(=O)N[C@@H](CCCCN)C(=O)N[C@@H](CC(C)C)C(=O)N[C@@H](CCC(N)=O)C(=O)N[C@@H](CC(=O)O)CC(=O)N[C@H](C(=O)N[C@@H](Cc1c[nH]cn1)C(=O)N[C@@H](CC(N)=O)C(=O)N[C@H](CC(N)=O)Cc1ccccc1)C(C)C)C(C)C)Cc1c[nH]c2ccccc12` (stereo partly drawn) [M-D6] (H-AVAEIQ[X14]MHQ[hArg]AK[β3hW]LNS[β3hM]RRV[β3hE]WLR[β3hK]KLQ[β3hD]VHN[β3hF]-NH2; N-terminus assumed): the “Fold PTH” value (Table 10) was found to be 5.4.

In the case of `CC[C@H](C)[C@H](NC(=O)[C@H](CCC(=O)O)NC(=O)C(C)(C)NC(=O)[C@@H](NC(=O)[C@H]1CCC[C@@H]1N)C(C)C)C(=O)N[C@@H](CCC(N)=O)C(=O)N[C@H]1CCC[C@@H]1C(=O)N[C@@H](CCSC)C(=O)N[C@@H](Cc1c[nH]cn1)C(=O)N[C@@H](CCC(N)=O)C(=O)N[C@@H](CCCCNC(=N)N)C(=O)N[C@@H](C)C(=O)N[C@@H](CCCCN)C(=O)N[C@H]1CCC[C@@H]1C(=O)N[C@@H](CC(C)C)C(=O)N[C@@H](CC(N)=O)C(=O)N[C@@H](CO)C(=O)N[C@H]1CCC[C@@H]1C(=O)N[C@@H](CCCNC(=N)N)C(=O)N[C@@H](CCCNC(=N)N)C(=O)N[C@H](C(=O)N[C@H]1CNC[C@@H]1C(=O)N[C@@H](Cc1c[nH]c2ccccc12)C(=O)N[C@@H](CC(C)C)C(=O)N[C@@H](CCCNC(=N)N)C(=O)N[C@H]1CNC[C@@H]1C(=O)N[C@@H](CCCCN)C(=O)N[C@@H](CC(C)C)C(=O)N[C@@H](CCC(N)=O)C(=O)N[C@H]1CCC[C@@H]1C(=O)N[C@H](C(=O)N[C@@H](Cc1c[nH]cn1)C(=O)N[C@@H](CC(N)=O)C(=O)N[C@H]1CCC[C@@H]1C(N)=O)C(C)C)C(C)C` [M-FcycD6_ACPC(1,7), XVUEIQXMHQ^hRAKXLNSXRRVZWLRZKLQXVHNX-NH2] ({ACPC(1S,2S)}-V[Aib]EIQ[X12]MHQ[hArg]AK[X12]LNS[X12]RRV[X13]WLR[X13]KLQ[X12]VHN-{NH(1S,2S-2-CONH2-cPent)}; N-terminus assumed), the “Fold PTH” value (Table 10) was 21.8.
